In patent US20100226917A1, “METHODS FOR THE TREATMENT OF HEMATOLOGIC MALIGNANCIES” (AstraZeneca AB, priority 2007, published 2010):
Each block holds one molecule with its values, some of them ahead of it.

Experiments:
[1] = system: marrow mononuclear cells from patients with acute myelogenous leukemia; assay: Colony formation of AML patient marrow mononuclear cells in methylcellulose; type: cell-based, human; conditions: 30-300 nM, 48-hour incubation, colonies scored after 14 days, 9 AML patient samples
Experimental: Marrow mononuclear cells from 9 patients with acute myelogenous leukemia were isolated by sedimentation on Ficoll-Hypaque density gradients (English et al. Single-Step Separation of Red Blood Cells. Granulocytes and Mononuclear Leukocytes on Discontinuous Density Gradients of Ficoll-Hypaque. Journal of Immunological Methods, 5: 249-252, 1974). After removal of an aliquot for staining to determine the percentage of blasts, replicate aliquots containing 1×10^6 cells in 1 ml Improved Dulbecco's Medium containing 20% heat-inactivated fetal bovine serum, 50 units/ml penicillin G, 50 μg/ml streptomycin and 2 mM glutamine (medium A) were treated with diluent (0.2% dimethyl sulfoxide), increasing concentrations of cytarabine alone (25-300 nM), increasing concentrations of a CHK-1 inhibitor (formula 1.1) (30-300 nM), or increasing concentrations of cytarabine in the presence of 100 nM of a CHK-1 inhibitor (Formula 1.1). […] Following a 14-day incubation at 37° C., colonies containing ≧50 cells were scored on an inverted microscope using established criteria (Eaves, C. and Lambie, K. Atlas of human hematopoietic colonies. Vancouver: StemCell Technologies Inc., 1995). […]

[2] = system: Mec1 chronic B cell leukemia cell line; assay: Cell Titer-Glo luminescent cell viability assay, Mec1 cell line; type: cell-based; conditions: Homo sapiens; Mec1, 48 hour treatment
Experimental: (§1) Chronic B cell leukemia cell lines (JVM2 and Mec1) (American Type Culture Collection (ATCC), Manassas, Va.) were plated in 96 well plates and 24 hours later were treated with increasing concentrations of a CHK1 inhibitor (Formula 1.1). Following 48 hour treatment cell viability was measured using Cell Titer-Glo® luminescent cell viability assay (Promega, Madison, Wis.).

[3] = system: JVM2 chronic B cell leukemia cell line; assay: Cell Titer-Glo luminescent cell viability assay, JVM2 cell line; type: cell-based; conditions: Homo sapiens, JVM-2; JVM2, 48 hour treatment
Experimental: as §1

[4] = system: tumor cells isolated from CLL patients; assay: Ex vivo cell viability (Cell Titer-Glo) of mononuclear cells isolated from CLL patient blood; type: cell-based, human; conditions: 48 hour treatment; for IC50: Homo sapiens
Experimental: Blood samples (10 mls) were collected from CLL patients and placed on ice. Whole blood was then diluted with phosphate buffered saline (PBS) (2-3 fold dilution) and carefully layered over 12 mls Ficoll-paque (GE Healthcare, Westborough, Mass.) in a 50 ml conical tube. Samples were then centrifuged at 3500 rpm for 35 minutes without break at room temperature. Plasma was removed and opaque interphase containing mononuclear cells was collected and placed into a clean conical centrifuge tube. Cells were then washed twice with PBS with 1% fetal bovine serum (FBS). Following final wash, cells were resuspended in 5˜10 mls RPMI 1640 (Invitrogen, Grand Island, N.Y.) plus 10% fetal calf serum (FCS) medium. Cells were then counted by Trypan blue exclusion method and viability and purity assessed.
Cells were then plated into 96 well plates (1×10^5 cells/well) and incubated overnight in a drug free medium. The next morning cells were treated with fludarabine (1, 3 and 10 μM), gemcitabine (0.1 and 1 μM), CHK1 inhibitor of Formula 1.1 (0.01, 0.1 and 0.5 μM) or the combination of fludarabine and CHK1 inhibitor or gemcitabine and CHK1 inhibitor. […] Following 48 hour treatment, cell viability was measured using Cell Titer-Glo® luminescent cell viability assay (Promega, Madison, Wis.).

CD20 antigen = target: T1, CD20 antigen (Homo sapiens, UniProt P11836); conditions: read-out: binding affinity; cited from earlier work
T1 sequence (P11836 1-297): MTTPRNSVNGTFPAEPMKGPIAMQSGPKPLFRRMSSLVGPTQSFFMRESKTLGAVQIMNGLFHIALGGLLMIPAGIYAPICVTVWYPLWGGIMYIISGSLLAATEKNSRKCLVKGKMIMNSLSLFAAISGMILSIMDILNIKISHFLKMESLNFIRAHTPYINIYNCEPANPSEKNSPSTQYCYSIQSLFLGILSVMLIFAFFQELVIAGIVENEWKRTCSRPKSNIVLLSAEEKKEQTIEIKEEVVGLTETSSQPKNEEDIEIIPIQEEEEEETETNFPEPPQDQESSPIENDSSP

[5] = relapsed patient who one week prior received rituximab treatment
[6] = newly diagnosed patient who had not received previous treatment

GI50 [2]: 79 nM | GI50 [3]: 13 nM | IC50 [4, 5]: 11 nM
Molecule: NC(=O)Nc1cc(-c2cccc(F)c2)sc1C(=O)N[C@H]1CCCNC1 [Formula 1.1, 5-(3-Fluoro-phenyl)-3-ureido-thiophene-2-carboxylic acid (S)-piperidin-3-ylamide]
samples showing single agent sensitivity [1]: Four out of nine samples | response (cell viability) [4, 6]: not

Molecule: rituximab
Kd (CD20 antigen): ~8 nM

Molecule: Nc1nc(F)nc2c1ncn2[C@@H]1O[C@H](CO)[C@@H](O)[C@@H]1O [fludarabine]
IC50 [4, 6]: 560 nM | IC50 [4, 5]: 5100 nM

Molecule: Nc1ccn([C@@H]2O[C@H](CO)[C@@H](O)C2(F)F)c(=O)n1 [gemcitabine]
response (cell viability) [4, 6]: not | response (cell viability) [4, 5]: not
